Data taken from PubChem BioAssay AID1259407 (Chemical Carcinogenesis Research Information System (CCRIS), 2018).
Active and inactive are the calls of the source. How the calls were made is not given here.

Test system: CCRIS mutagenicity, Ames/micronucleus/aberration tests
Test: CCRIS mutagenicity studies
[1] = Test System: AMES SALMONELLA TYPHIMURIUM, Strain/Indicator: TA98, Metabolic Activation: NONE, Method: PREINCUBATION
[2] = Test System: AMES SALMONELLA TYPHIMURIUM, Strain/Indicator: TA100, Metabolic Activation: NONE, Method: PREINCUBATION
[3] = Test System: AMES SALMONELLA TYPHIMURIUM, Strain/Indicator: TA1535, Metabolic Activation: NONE, Method: PREINCUBATION
[4] = Test System: AMES SALMONELLA TYPHIMURIUM, Strain/Indicator: TA1537, Metabolic Activation: NONE, Method: PREINCUBATION
[5] = Test System: AMES SALMONELLA TYPHIMURIUM, Strain/Indicator: TA1538, Metabolic Activation: NONE, Method: PREINCUBATION
[6] = Test System: AMES SALMONELLA TYPHIMURIUM, Strain/Indicator: TA98, Metabolic Activation: NONE, Method: STANDARD PLATE
[7] = Test System: AMES SALMONELLA TYPHIMURIUM, Strain/Indicator: TA98, Metabolic Activation: RAT, LIVER, S-9, AROCLOR 1254, Method: STANDARD PLATE
[8] = Test System: AMES SALMONELLA TYPHIMURIUM, Strain/Indicator: TA100, Metabolic Activation: NONE, Method: STANDARD PLATE
[9] = Test System: AMES SALMONELLA TYPHIMURIUM, Strain/Indicator: TA100, Metabolic Activation: RAT, LIVER, S-9, AROCLOR 1254, Method: STANDARD PLATE
[10] = Test System: AMES SALMONELLA TYPHIMURIUM, Strain/Indicator: TA1537, Metabolic Activation: NONE, Method: STANDARD PLATE
[11] = Test System: AMES SALMONELLA TYPHIMURIUM, Strain/Indicator: TA1537, Metabolic Activation: RAT, LIVER, S-9, AROCLOR 1254, Method: STANDARD PLATE
[12] = Test System: AMES SALMONELLA TYPHIMURIUM, Strain/Indicator: TA1538, Metabolic Activation: NONE, Method: STANDARD PLATE

With `CC(C)(C)C(=O)C(Oc1ccc(Cl)cc1)n1ccnc1` (centres undefined) the mutagenic call [1] was “inactive; negative”, the mutagenic call (Test System: AMES SALMONELLA TYPHIMURIUM, Strain/Indicator: TA98, Metabolic Activation: RAT, LIVER, S-9, PCB, Method: PREINCUBATION) was “inactive; negative” and the mutagenic call [2] was “inactive; negative”. For the same compound, the mutagenic call (Test System: AMES SALMONELLA TYPHIMURIUM, Strain/Indicator: TA100, Metabolic Activation: RAT, LIVER, S-9, PCB, Method: PREINCUBATION) was “inactive; negative”, the mutagenic call [3] was “inactive; negative” and the mutagenic call (Test System: AMES SALMONELLA TYPHIMURIUM, Strain/Indicator: TA1535, Metabolic Activation: RAT, LIVER, S-9, PCB, Method: PREINCUBATION) was “inactive; negative”. For the same compound, the mutagenic call [4] was “inactive; negative”, the mutagenic call (Test System: AMES SALMONELLA TYPHIMURIUM, Strain/Indicator: TA1537, Metabolic Activation: RAT, LIVER, S-9, PCB, Method: PREINCUBATION) was “inactive; negative” and the mutagenic call [5] was “inactive; negative”. The mutagenic call (Test System: AMES SALMONELLA TYPHIMURIUM, Strain/Indicator: TA1538, Metabolic Activation: RAT, LIVER, S-9, PCB, Method: PREINCUBATION) was “inactive; negative”, the mutagenic call (Test System: Ames Salmonella typhimurium, Strain/Indicator: TA98, Metabolic Activation: None, Method: Plate incorporation) was “inactive; negative” and the mutagenic call (Test System: Ames Salmonella typhimurium, Strain/Indicator: TA98, Metabolic Activation: None, Method: Preincubation) was “inactive; negative”. For the same compound, the mutagenic call (Test System: Ames Salmonella typhimurium, Strain/Indicator: TA98, Metabolic Activation: Rat, Liver, S-9, Aroclor, Method: Plate incorporation) was “inactive; negative”, the mutagenic call (Test System: Ames Salmonella typhimurium, Strain/Indicator: TA98, Metabolic Activation: Rat, Liver, S-9, Aroclor, Method: Preincubation) was “inactive; negative” and the mutagenic call (Test System: Ames Salmonella typhimurium, Strain/Indicator: TA100, Metabolic Activation: None, Method: Plate incorporation) was “inactive; negative”. For the same compound, the mutagenic call (Test System: Ames Salmonella typhimurium, Strain/Indicator: TA100, Metabolic Activation: None, Method: Preincubation) was “inactive; negative”, the mutagenic call (Test System: Ames Salmonella typhimurium, Strain/Indicator: TA100, Metabolic Activation: Rat, Liver, S-9, Aroclor, Method: Plate incorporation) was “inactive; negative” and the mutagenic call (Test System: Ames Salmonella typhimurium, Strain/Indicator: TA100, Metabolic Activation: Rat, Liver, S-9, Aroclor, Method: Preincubation) was “inactive; negative”. The mutagenic call (Test System: Ames Salmonella typhimurium, Strain/Indicator: TA1535, Metabolic Activation: None, Method: Plate incorporation) was “inactive; negative”, the mutagenic call (Test System: Ames Salmonella typhimurium, Strain/Indicator: TA1535, Metabolic Activation: None, Method: Preincubation) was “inactive; negative” and the mutagenic call (Test System: Ames Salmonella typhimurium, Strain/Indicator: TA1535, Metabolic Activation: Rat, Liver, S-9, Aroclor, Method: Plate incorporation) was “inactive; negative”. For the same compound, the mutagenic call (Test System: Ames Salmonella typhimurium, Strain/Indicator: TA1535, Metabolic Activation: Rat, Liver, S-9, Aroclor, Method: Preincubation) was “inactive; negative”, the mutagenic call (Test System: Ames Salmonella typhimurium, Strain/Indicator: TA1537, Metabolic Activation: None, Method: Plate incorporation) was “inactive; negative” and the mutagenic call (Test System: Ames Salmonella typhimurium, Strain/Indicator: TA1537, Metabolic Activation: None, Method: Preincubation) was “inactive; negative”. For the same compound, the mutagenic call (Test System: Ames Salmonella typhimurium, Strain/Indicator: TA1537, Metabolic Activation: Rat, Liver, S-9, Aroclor, Method: Plate incorporation) was “inactive; negative”, the mutagenic call (Test System: Ames Salmonella typhimurium, Strain/Indicator: TA1537, Metabolic Activation: Rat, Liver, S-9, Aroclor, Method: Preincubation) was “inactive; negative” and the mutagenic call (Test System: E. COLI, Strain/Indicator: WP2 UVRA, Metabolic Activation: NONE, Method: PREINCUBATION) was “inactive; negative”. The mutagenic call (Test System: E. coli, Strain/Indicator: WP2uvrA (pKM101), Metabolic Activation: None, Method: Plate incorporation) was “inactive; negative”, the mutagenic call (Test System: E. coli, Strain/Indicator: WP2uvrA (pKM101), Metabolic Activation: None, Method: Preincubation) was “inactive; negative” and the mutagenic call (Test System: E. coli, Strain/Indicator: WP2uvrA (pKM101), Metabolic Activation: Rat, Liver, S-9, Aroclor, Method: Plate incorporation) was “inactive; negative”. The mutagenic call (Test System: E. coli, Strain/Indicator: WP2uvrA (pKM101), Metabolic Activation: Rat, Liver, S-9, Aroclor, Method: Preincubation) was “inactive; negative”, the mutagenic call (Test System: In vitro micronucleus, Strain/Indicator: Human lymphocytes, Metabolic Activation: None) was “inactive; negative” and the mutagenic call (Test System: In vivo micronucleus, Species: Mouse, Strain/Sex: ICR/Male, Route: Oral (gavage)) was “inactive; negative”. The mutagenic call (Test System: Mouse lymphoma L5178Y/TK+/- cells, Strain/Indicator: WP2 uvrA (pKM101), Metabolic Activation: Rat, Liver, S-9, Aroclor 1254, Method: Suspension/plate) was “inactive; negative” and the mutagenic call (Test System: UDS Rat hepatocytes, Strain/Indicator: Thymidine incorporation, Method: In vivo - in vitro, measurement by autoradiography) was “active; positive”.

`c1ccc2c(c1)cc1ccc3cc4ccccc4c4ccc2c1c34` was tested, and the mutagenic call [6] was “inactive; negative”, the mutagenic call [7] was “active; positive” and the mutagenic call [8] was “inactive; negative”. For the same compound, the mutagenic call [9] was “active; positive”, the mutagenic call [10] was “inactive; negative” and the mutagenic call [11] was “inactive; negative”. The mutagenic call [12] was “inactive; negative”, the mutagenic call (Test System: AMES SALMONELLA TYPHIMURIUM, Strain/Indicator: TA1538, Metabolic Activation: RAT, LIVER, S-9, PHENOBARBITAL, Method: STANDARD PLATE) was “active; positive” and the mutagenic call (Test System: HUMAN H1A1V2 CELLS, Strain/Indicator: TK LOCUS, Metabolic Activation: NONE, Method: SUSPENSION/PLATE) was “active; positive”.

For `O=c1cn[nH]c(=O)[nH]1`, the mutagenic call (Test System: AMES SALMONELLA TYPHIMURIUM, Strain/Indicator: TA98, Metabolic Activation: MAIZE SEEDLING, S-14, Method: PREINCUBATION) was “inactive; negative”, the mutagenic call (Test System: AMES SALMONELLA TYPHIMURIUM, Strain/Indicator: TA98, Metabolic Activation: MOUSE, LIVER, S-9, Method: PREINCUBATION) was “inactive; negative” and the mutagenic call [1] was “inactive; negative”. For the same compound, the mutagenic call [6] was “inactive; negative”, the mutagenic call [7] was “active; positive” and the mutagenic call (Test System: AMES SALMONELLA TYPHIMURIUM, Strain/Indicator: TA100, Metabolic Activation: MAIZE SEEDLING, S-14, Method: PREINCUBATION) was “inactive; negative”. The mutagenic call (Test System: AMES SALMONELLA TYPHIMURIUM, Strain/Indicator: TA100, Metabolic Activation: MOUSE, LIVER, S-9, Method: PREINCUBATION) was “inactive; negative”, the mutagenic call [2] was “inactive; negative” and the mutagenic call [8] was “inactive; negative”. For the same compound, the mutagenic call [9] was “inactive; negative”, the mutagenic call [3] was “inactive; negative” and the mutagenic call (Test System: AMES SALMONELLA TYPHIMURIUM, Strain/Indicator: TA1535, Metabolic Activation: NONE, Method: STANDARD PLATE) was “inactive; negative”. The mutagenic call (Test System: AMES SALMONELLA TYPHIMURIUM, Strain/Indicator: TA1535, Metabolic Activation: RAT, LIVER, S-9, AROCLOR 1254, Method: STANDARD PLATE) was “inactive; negative”, the mutagenic call [4] was “inactive; negative” and the mutagenic call [10] was “inactive; negative”. The mutagenic call [11] was “inactive; negative”, the mutagenic call [5] was “inactive; negative” and the mutagenic call [12] was “inactive; negative”. For the same compound, the mutagenic call (Test System: AMES SALMONELLA TYPHIMURIUM, Strain/Indicator: TA1538, Metabolic Activation: RAT, LIVER, S-9, AROCLOR 1254, Method: STANDARD PLATE) was “active; positive”.

In the case of `O=c1c2c(O)cccc2oc2c3c(cc(O)c12)O[C@H]1OC=C[C@@H]31`, the mutagenic call (Test System: AMES SALMONELLA TYPHIMURIUM, Strain/Indicator: TA98, Metabolic Activation: RAT, LIVER, S-9, PHENOBARBITAL, Method: STANDARD PLATE) is reported as “inactive; negative” and the mutagenic call (Test System: AMES SALMONELLA TYPHIMURIUM, Strain/Indicator: TA100, Metabolic Activation: RAT, LIVER, S-9, PHENOBARBITAL, Method: STANDARD PLATE) is reported as “active; positive”.

`C[C@]12CC[C@@H]3c4ccc(O)c(O)c4CC[C@H]3[C@@H]1CCC2=O` was tested, and the mutagenic call (Test System: Ames Salmonella typhimurium, Strain/Indicator: TA98, Metabolic Activation: None, Method: Standard plate) was “inactive; negative”, the mutagenic call (Test System: Ames Salmonella typhimurium, Strain/Indicator: TA98, Metabolic Activation: Rat, liver, S-9, Method: Standard plate) was “inactive; negative” and the mutagenic call (Test System: Ames Salmonella typhimurium, Strain/Indicator: TA100, Metabolic Activation: None, Method: Standard plate) was “inactive; negative”. The mutagenic call (Test System: Ames Salmonella typhimurium, Strain/Indicator: TA100, Metabolic Activation: Rat, liver, S-9, Method: Standard plate) was “inactive; negative”.
